This is an account of results in patent US20220089600A1, “TGFß INHIBITOR AND PRODRUGS” (FUNDACIÓ INSTITUT DE RECERCA BIOMÈDICA (IRB BARCELONA), priority 2018, published 2022).

Where only a bound is given, the exact number is not on record here.

In one data set the test system is HEK293T cells. Nature of the data set: In vitro cytotoxicity, XTT assay. Format: cell-based. Particulars: 24h. As for the experimental part: To assess the toxicity of the compound of formula I in vitro, HEK293T cells were seeded in 96-well plates and treated for 24h with indicated compounds. DMSO was used as a control.
Cell viability was assessed by the XTT assay (Biological Industries), according to the manufacturer's instructions, incubating for 4h prior to measurement.

Data set [1] deals with TGFβ signaling (12×CAGA-Firefly_Luc reporter) in HEK293T cells. Nature of the data set: In vitro CAGA-Luciferase reporter assay. Format: cell-based. To be noted: Homo sapiens, HEK-293T, 5 ng/ml TGFB1, 16h, read-out: IC50, TGFβ signaling inhibition (CAGA-Luciferase). As for the experimental part: HEK293T cells were purchased from the ATCC and cultured in DMEM supplemented with L-glutamine and 10% fetal bovine serum (Life Technologies) at 37° C. and 5% CO2. The cells were seeded in 24-well plates and transfected with plasmids encoding 12×CAGA-Firefly_Luc and Tk-Renilla_Luc (75 and 10 ng per well, respectively), using polyethylenimine (Polysciences) as transfection reagent. After 7h, medium was replaced for starvation medium (DMEM+0.05% FBS). […] Luciferase activity was measured 16h later using the Dual Luciferase Assay kit (Promega): media were aspirated, and cells were lysed in 200 μl passive lysis buffer (kit) for 20 minutes. Bioluminescence was measured in a Berthold Lumat LB6507 luminometer (18 μl reagents, 10 seconds measurements). […]
When adding the luciferase substrate (luciferin) to the cell lysates, emission of light implies an active TGF-β pathway due to the production of pSMAD2/3-SMAD4, whereas no or little observed light would imply inhibition of the pathway by the inhibitor. Finally, the results could be normalized by the addition of Stop & Glo® which quenches the firefly luciferase enzyme/substrate and activates the Renilla transfection control, producing light which was again measured by the luminometer and used to normalize the data.
For orientation: In a reporter assay the amount or activity of a reporter protein is the signal.

In a further data set the target is T1, ALK3 (BMPR1A) (Homo sapiens, UniProt P36894).
T1 construct: purchased Eurofins (KINOMEscan service)
The data set is described as follows: KINOMEscan affinity, competition binding. As for the experimental part:
(§1) The affinity, measured as Kd (dissociation constants), of the compound of formula I for the ALK family was determined by using the KINOMEscan™ Technology from Eurofins. Selectivity in front of ALK1 (ACVRL1), ALK2 (ACVR1), ALK3 (BMPR1A), ALK4 (ACVR1B), ALK6 (BMPR1B), ACVR2B and TGFβR2 was determined.
(§2) The KINOMEscan screening platform employs an active-site directed competition binding assay to quantitatively measure interactions between test compounds and kinases.
(§3) The assay is performed by combining three components: DNA-tagged kinase; immobilized ligand; and a test compound. The ability of the test compound to compete with the immobilized ligand is measured via quantitative PCR of the DNA tag.
(§4) Test compounds were prepared as 111× stocks in 100% DMSO. Kds were determined using an 11-point 3-fold compound dilution series with three DMSO control points being the top concentration 30 μM. […] The compounds were then diluted directly into the assays such that the final concentration of DMSO was 0.9%. All reactions performed in polypropylene 384-well plate. Each was a final volume of 0.02 ml. […] The beads were then re-suspended in elution buffer (1×PBS, 0.05% Tween 20, 0.5 μM non-biotinylated affinity ligand) and incubated at room temperature with shaking for 30 minutes. The kinase concentration in the eluates was measured by qPCR.
(§5) Compounds that bind the kinase active site and directly (sterically) or indirectly (allosterically) prevent kinase binding to the immobilized ligand, will reduce the amount of kinase captured on the solid support. […] Dissociation constants (Kds) for test compound-kinase interactions are calculated by measuring the amount of kinase captured on the solid support as a function of the test compound concentration.

For the next data set, the target named is T2, TGFBR2 (Homo sapiens, UniProt P37173).
T2 construct: purchased Eurofins (KINOMEscan service)
Nature of the data set: KINOMEscan affinity, competition binding. As for the experimental part:
as §1, §2, §3, §4, §5

The target in the next data set is T3, ALK2 (ACVR1) (Homo sapiens, UniProt Q04771).
T3 construct: purchased Eurofins (KINOMEscan service)
T3 sequence (Q04771 21-509): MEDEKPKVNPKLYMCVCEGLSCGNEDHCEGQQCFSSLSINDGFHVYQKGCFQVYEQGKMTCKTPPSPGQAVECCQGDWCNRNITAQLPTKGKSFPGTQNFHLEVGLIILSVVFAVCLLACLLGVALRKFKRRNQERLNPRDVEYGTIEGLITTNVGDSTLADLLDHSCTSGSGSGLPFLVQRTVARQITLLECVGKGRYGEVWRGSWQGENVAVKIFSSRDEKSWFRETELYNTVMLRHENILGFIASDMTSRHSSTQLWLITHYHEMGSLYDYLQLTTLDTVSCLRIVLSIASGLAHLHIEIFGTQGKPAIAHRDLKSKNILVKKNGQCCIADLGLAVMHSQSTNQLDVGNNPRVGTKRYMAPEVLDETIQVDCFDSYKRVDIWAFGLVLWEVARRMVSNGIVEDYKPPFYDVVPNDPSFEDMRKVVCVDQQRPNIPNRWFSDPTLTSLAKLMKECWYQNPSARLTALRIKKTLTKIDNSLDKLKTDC
Nature of the data set: KINOMEscan affinity, competition binding. The protocol: as §1, §2, §3, §4, §5

The next data set deals with panel of 97 proteins. Nature of the data set: scanEDGE (KINOMEscan) selectivity panel. It counts as binding. As for the experimental part: Using scanEDGE (KINOMEscan, Eurofins) assays, the selectivity of the compound of formula I against a panel of 97 proteins was also measured. The selectivity profile of the compound of formula was good.
Data set [2] has as its system proteins in the SafetyScreen44 panel (versus ALK5). The data set is described as follows: SafetyScreen44 safety panel. Particulars: SafetyScreen44 panel (Eurofins) of off-target proteins; read-out: selectivity ratios for the proteins in the SafetyScreen44 panel. As for the experimental part:
(§6) In addition, a safety assessment was performed by using the SafetyScreen44™ service from Eurofins. The targets therein are all strongly associated with in vivo adverse drug reactions as referenced in the publication Reducing safety-related drug attrition: the use of in vitro pharmacological profiling (Bowes J et al., Nature Review Drug Discovery 2012, 11(12): 909-922). The panel represents a rational first step in preliminary safety assessments as they provide early identification of potential off-target interactions for the optimization of safety margins. This Safety Panel includes both enzymatic and binding assays. The percentage of inhibition for the compound of formula I at 10 μM was lower than 50% for all proteins tested.

For data set [3], the system named is proteins in the SafetyScreen44 panel. The data set is described as follows: SafetyScreen44 safety panel. To be noted: at 10 μM, all proteins tested. The protocol: as §6

T1 sequence (P36894 24-532): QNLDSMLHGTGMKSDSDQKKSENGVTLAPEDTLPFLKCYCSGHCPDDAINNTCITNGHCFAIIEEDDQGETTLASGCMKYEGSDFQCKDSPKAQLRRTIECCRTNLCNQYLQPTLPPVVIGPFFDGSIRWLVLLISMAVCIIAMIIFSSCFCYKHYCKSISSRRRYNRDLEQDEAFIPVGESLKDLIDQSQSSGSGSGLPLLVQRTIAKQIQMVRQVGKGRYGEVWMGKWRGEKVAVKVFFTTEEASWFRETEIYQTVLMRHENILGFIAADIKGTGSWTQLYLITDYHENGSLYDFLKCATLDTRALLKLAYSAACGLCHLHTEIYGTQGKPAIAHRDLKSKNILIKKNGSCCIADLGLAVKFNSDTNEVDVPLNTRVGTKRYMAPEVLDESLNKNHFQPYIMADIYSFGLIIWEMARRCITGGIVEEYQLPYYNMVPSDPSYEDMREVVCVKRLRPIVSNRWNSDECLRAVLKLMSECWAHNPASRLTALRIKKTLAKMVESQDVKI
T2 sequence (P37173 23-567): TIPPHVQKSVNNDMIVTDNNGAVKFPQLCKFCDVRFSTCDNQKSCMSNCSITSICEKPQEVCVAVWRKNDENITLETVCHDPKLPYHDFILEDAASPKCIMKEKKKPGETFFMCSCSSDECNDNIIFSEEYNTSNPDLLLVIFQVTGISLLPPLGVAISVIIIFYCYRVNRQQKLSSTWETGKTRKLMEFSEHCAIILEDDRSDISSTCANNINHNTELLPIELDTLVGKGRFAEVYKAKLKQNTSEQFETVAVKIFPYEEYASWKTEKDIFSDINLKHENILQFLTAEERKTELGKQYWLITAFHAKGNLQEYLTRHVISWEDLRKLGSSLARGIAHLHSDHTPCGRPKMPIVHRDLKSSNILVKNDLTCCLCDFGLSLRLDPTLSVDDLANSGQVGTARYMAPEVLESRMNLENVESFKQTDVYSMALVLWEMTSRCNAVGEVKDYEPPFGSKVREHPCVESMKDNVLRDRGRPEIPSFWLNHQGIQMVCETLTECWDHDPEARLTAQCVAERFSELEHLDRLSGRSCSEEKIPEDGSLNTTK

As usually defined, the IC50 is the midpoint of a concentration-inhibition curve. With `Cc1cccc(-c2nn3c(c2-c2ccnc4ccc(O)cc24)CCC3)n1` [compound of formula I, 4-(2-(6-methylpyridin-2-yl)-5,6-dihydro-4H-pyrrolo[1,2-b]pyrazol-3-yl)quinolin-6-ol], the results for the Cell viability with HEK293T cells (30 μM) and with HEK293T cells (100 μM) were 93% and 64%, respectively. Besides, the IC50 in data set [1] amounted to 165 nM. The figures for the Selectivity improvement at ALK3 (BMPR1A) ((I) versus Galunisertib), at TGFBR2 ((I) versus Galunisertib) and on ALK2 (ACVR1) ((I) versus Galunisertib) were 3.5, 83 and 1.8, respectively. For the same molecule, the “Selectivity against ALK5” value is on record as 345 at ALK3 (BMPR1A) (ALK3 versus ALK5), 100 at TGFBR2 (TGFBR2 versus ALK5) and 375 at ALK2 (ACVR1) (ALK2 versus ALK5). The “selectivity for ALK5 against ALK3” value on ALK3 (BMPR1A) (KINOMEscan) is reported as “greater than 300 fold”. Further, the “selectivity for ALK5 against TGFBR2” value at TGFBR2 (KINOMEscan) is 100 fold. On ALK2 (ACVR1) (KINOMEscan), the “selectivity for ALK5 against ALK2” value is given as “greater than 300 fold”. Further, in the data set with panel of 97 proteins, the selectivity profile result was “good”. Also, in data set [2], the selectivity ratio at 10 μM is > 500. In addition, the percentage of inhibition entry in data set [3] is “lower than 50%”.
